Test results as given in US20050203071A1, “Use of carbon-2-modified-19-nor-vitamin d analogs to induce the formation of new bone” (priority 2003, published 2005).
Read-outs that look alike come from different tables or passages of the source.

Columns and labels:
[1] = test system: human osteoblast cultures; assay: bone nodule formation in vitro in human osteoblast cultures (Von Kossa stain); format: cell-based; settings: for stimulation of osteoblast cultures to form mineralized bone, Von Kossa stain (FIG. 2): different concentrations, human osteoblast cultures
Text: Human bone samples discarded after surgical procedures from patients undergoing hip/knee replacement surgeries are obtained under an approved IRB protocol (Protocol #2001-055) and processed as described below. These bone pieces are otherwise routinely discarded as waste material during surgery.
The bone pieces are thoroughly washed and cleaned under sterile conditions using phosphate-buffered saline (PBS). These pieces are then cut to obtain smaller pieces (1-2 mm^3) and subjected to enzymatic digestion process to isolate osteoblasts as described below.
Osteoblastic cells are obtained from the bone pieces by collagenase digestion. Briefly, the bone samples are washed twice in PBS and dissected in about 1 mm^3 size fragments which are then sequentially digested in trypsin (1 mg/mL) for ten minutes, followed by dispase (2 mg/mL) for twenty minutes, and bacterial collagenase [Collagenase A] (3 mg/mL) twice for thirty minutes in PBS at 37° C. in a water bath. Cells released by collagenase digestion are then washed, counted and grown to sub-confluence in 25 cm^2 cell culture flasks in 1:1 Ham's F12/Dulbecco's modification of Eagle's medium (DMEM) supplemented with 10% fetal bovine serum. Cells are cultured at 37° C. in a humidified atmosphere of 5% CO2/95% air. Medium changes are made every 2-3 days and cells are cultured until they are 80% confluent. Cells are then trypsinized, washed and frozen from early passages for evaluation using techniques as described below.
In order to evaluate the ability of osteoblasts to form bone nodules in vitro, cells are cultured in 6 well plates at 1-3×10^5 cells/well. Cells are cultured in the presence of either 1,25-(OH)2D3 or vitamin D analogs at various doses for 7 days. Complete medium changes are carried out twice during the 7-day period and the medium is supplemented with fresh compounds (either 1,25-(OH)2D3 or 2-methylene-19-nor-(20S)-1α,25-dihydroxyvitamin D3—2MD) during each medium change. At days 10 and 13, complete medium changes are carried out and the compounds are replaced by treatment with ascorbic acid (50 μg/ml) and β-glycerol phosphate (10 mM). A third dose of ascorbic acid and β-glycerol phosphate is added to the cultures on day 15 if needed. Following the culture period, cells are stained using the Von Kossa technique. Briefly, cells are stained with 5% silver nitrate for 30 minutes in the dark, rinsed with distilled water, reduced with sodium carbonate/formaldehyde solution for 2 minutes and washed under tap water for 10 minutes. The cells are then stained with methyl green pyronin for 20 minutes, washed with water followed by two washes of absolute alcohol. […] Bone nodule formation in vitro can be assessed quantitatively by various published procedures.

ovariectomized rats = settings: ovariectomized animal/rats, cited from earlier work

| Compound | change in osteoblast cultures / formation of mineralized bone (FIG. 1) ([1]; 10^−8 molar, after 14 days of incubation) | stimulation of osteoblast cultures to form mineralized bone, Von Kossa stain (FIG. 2) [1] | degree of new bone formation ([1]; concentration of 10^−12 molar) | bone mass (ovariectomized rats) | bone mass (ovariectomized rats; listed as 2-methylene-19-nor-20S-1,25-(OH)2D3) |
| --- | --- | --- | --- | --- | --- |
| C=C1/C(=C\C=C2/CCC[C@]3(C)[C@@H]([C@H](C)CCCC(C)(C)O)CC[C@@H]23)C[C@@H](O)C[C@@H]1O [1,25-(OH)2D3, 1α,25-dihydroxyvitamin D3, reference compound] | very little change | does not produce this effect | – | – | – |
| C=C1[C@H](O)CC(=C/C=C2\CCC[C@]3(C)[C@@H]([C@@H](C)CCCC(C)(C)O)CC[C@@H]23)C[C@H]1O [2MD, 2-methylene-19-nor-(20S)-1α,25-dihydroxyvitamin D3] | – | unique and strong action | saturating degree of new bone formation | markedly stimulate bone mass accumulation | increase bone mass |
| CC1C(O)CC(=CC=C2CCC[C@]3(C)[C@@H]([C@@H](C)CCCC(C)(C)O)CC[C@@H]23)CC1O (stereo partly drawn) [2α-methyl-19-nor-20S-1,25-(OH)2D3, 2α-methyl-19-nor-20(S)-1α,25-dihydroxyvitamin D3] | – | – | – | increase bone mass | – |
